Assay results from patent US5262157A (priority 1988, dated 1993).

Columns and labels:
in vivo [1] = conditions: rat; for Pentamidine concentration, Kidney: aerosol 0.4 mg/kg/day, 24 h after last dose
Experimental: Rats were treated in groups of four. […] Doses in all trials were calculated as above.

in vivo [2] = assay: in vivo
Experimental: The dose was calculated from the product of the concentration of the drug in the chamber, the minute volume of the rats (lung vol.×resp. rate), and the time of exposure. In all experiments exposure time was 15 min, male Sprague-Dawley rats with an average weight of 250 g were used, and the minute volume of the rats was assumed to be 70 ml. Rats were treated in groups of four. […] The aerosol was generated by oxygen flowing at 8 l/min through the nebulizer (Cadema Medical Products, part no. CA 61, Middletown, N.Y.). The drug solution was aerosolized at 0.3 ml/min with an expected mean particle diameter of 0.5-0.8 micron. […] This concentration multiplied by the minute volume and the exposure time gives a dose of 1.0 mg; since the rats weighed 0.25 kg, the dose was 4.0 mg/kg. Doses in all trials were calculated as above.
Four rats were studied at each time.

[3] = human, in vivo
Source text: Patients were 18 years old or older and outpatients judged free of any imminently-critical medical problems. All patents received a complete physical examination and medical history evaluation. Pretreatment laboratory studies included a CBC with differential and platelet count, a biochemical screening profile, chest X-ray, and pulmonary function tests including spirometry and measurement of diffusion capacity.
Each patient was issued a device at the start of the study. These devices were labeled with the patient's code number. The devices are simple to operate and their sterility was ensured as components were replaced after a single use. New sterile plastic reservoirs for the drug solution and new sterile suction rods were used for each treatment.
(§1) Each aerosol treatment was given over 15-30 minutes. […] 1.0, 1.5,or 2.0 ml aliquots were added to the nebulizer reservoir for doses of 30, 45, or 60 mg, respectively. Sterile pyrogen-free water was added to yield a total volume of 3.0 ml. Treatments were administered by a physician or registered nurse.
Signs of systemic toxicity were monitored. To detect adverse effects on the lungs, pulmonary function was monitored.
All problems were judged a concomitant illness or adverse reaction based on the following definitions. […]
Patients were interviewed before and after each treatment and any adverse reactions, complaints, or comments recorded. […]

Pneumocystis carinii [4] = assay: Clinical effectiveness of aerosol pentamidine in prophylaxis of PCP; type: in vivo, human
Experimental: as §1
Prophylaxis was judged effective for an individual patient if that patient had no proven or probable episodes of PCP. Prophylaxis was considered a proven failure if a patinet developed pneumonia and P. carinii was found in stained preparations obtained by bronchoscopy or lung biopsy. Prophylaxis was considered a probable failure if a patient develops pneumonia and responded to empiric treatment with SXT […]. If a patient died and no autopsy was perfomed, the case was considered not evaluable unless there was evidence that the patient had good antemortem pulmonary function and died from other causes. If the latter conditions were met, the case was considered a probable success.
The treatment period was three months; patients were examined before and after each treatment and underwent pulmonary function testing and biochemical and hematologic tests before treatment no. 1 and after treatment nos. 1, 2, 4, and 6.
A total of 650 treatments were given. Treatment periods ranged from 1-12 months. […] They had no reactions after their first four doses and was receiving several other medications at the time the rash developed. […] Five proven episodes of PCP have occurred among patients who received biweekly doses of 30 mg; six proven episodes of PCP have occurred among patients who were treated with this dose, but who skipped one or more scheduled doses.
A total of 73 patients were enrolled over the past two months with approximately equal numbers at each dose level. […] Patients who were receiving the low dose have since been randomized to receive either 45 or 60 mg. To date two patients receiving 45 mg have had proven episodes of PCP.

Pneumocystis carinii [5] = conditions: patients with AIDS, IV or IM 4 mg/kg/day, 14-21 days; cited from earlier work
[6] = test system: African trypanosomiasis (sleeping sickness); conditions: cited from earlier work
Pneumocystis carinii [7] = conditions: animal model of PCP; cited from earlier work
in vivo [8] = conditions: rat, im, 4 mg/kg, level in the lungs
Experimental: Intramuscular (IM) doses were administered to the hindcalves of male Sprague-Dawley rats (240-260 g, Charles River Breeding Laboratories, Wilmington, Mass.).
Animals were sacrificed at 24 h after the last dose.

[9] = rat, aerosol doses greatly exceeding the therapeutic dose; cited from earlier work
[10] = cited from earlier work
[11] = Pentamidine tissue concentrations in humans after intravenous infusions; conditions: human, IV 4.0 mg/kg/day
[12] = rat, in vivo, inhaled or intranasal, 4 mg/kg
[13] = aerosol 45 mg, weekly for four weeks then biweekly

## N=C(N)c1ccc(OCCCCCOc2ccc(C(=N)N)cc2)cc1 [pentamidine, Pentamidine isethionate]
In vivo [1]; 1 dose
  Pentamidine concentration, Kidney: NMA
In vivo [1]; 2 doses
  Pentamidine concentration, Kidney: NMA
In vivo [1]; 4 doses
  Pentamidine concentration, Kidney: NMA
In vivo [1]; in vivo, inhaled or intranasal, 0.4 mg/kg/day, levels in the lung
  concentration at 24 h: 60500 ng/g
In vivo [2]; rat, in vivo, 4 mg/kg
  amount retained per animal: 60 µg
  fraction of inhaled drug retained: about 6.0%
  retained dose: 0.24 mg/kg
In vivo [2]; [12]
  amount of drug retained in the lungs: about 40 mcg/g
  half-life: 36 days
In vivo [2]; single aerosol dose
  retention in the lungs: retained in the lungs for many weeks
[3]
  tolerability of treatments: well tolerated
Pneumocystis carinii [4]; aerosol 30 mg biweekly, 60 patients, 1-12 months
  proven episodes of PCP: Five
Pneumocystis carinii [4]; aerosol 30 mg biweekly, skipped doses
  proven episodes of PCP in patients who skipped one or more scheduled doses: six
Pneumocystis carinii [4]; aerosol 30 mg biweekly, twelve patients, three months
  proven or possible episodes of PCP: no patient had a proven or possible episode of PCP
Pneumocystis carinii [4]; aerosol 30 mg dose
  protection: not reliably protective
Pneumocystis carinii [4]; [13]
  patients with proven episodes of PCP: two
  severity of PCP episodes: very mild episodes
Pneumocystis carinii [4]; all phases, 960 doses, 116 patients
  mild cases of PCP: seven
Pneumocystis carinii [4]; all phases, preliminary evidence
  protection: at least partially protective
Pneumocystis carinii [5]
  treatment of PCP infection: highly effective in treatment of PCP infection
[6]; human volunteers, weekly bites from infected tse-tse flies
  resistance to infection after a single IM dose: resisted infection for one year or more
[6]; human
  chemoprophylaxis of African trypanosomiasis: effective in the chemoprophylaxis of African trypanosomiasis
[6]; twice-yearly IV or IM doses, Africa
  elimination of infection in endemic areas: eliminated the infection in endemic areas
Pneumocystis carinii [7]
  prophylaxis of PCP with IV or IM pentamidine: unsuccessful in the animal model of PCP
In vivo [8]
  concentration at 24 h: 800 ng/g
[9]
  toxicity in histopathologic sections from the lungs: No toxicity was seen
[10]; IV or IM
  elimination from blood: eliminated rapidly from blood
[10]; in vivo
  elimination from tissues: eliminated slowly from them
[11]; 1 dose
  Pentamidine concentration, Adrenal: 19 µg/g
  Pentamidine concentration, Kidney: 8.5 µg/g
  Pentamidine concentration, Liver: 35 µg/g
  Pentamidine concentration, Spleen: 40 µg/g
[11]; 2 doses
  Pentamidine concentration, Kidney: 13 µg/g
  Pentamidine concentration, Liver: 23 µg/g
  Pentamidine concentration, Spleen: 40 µg/g
[11]; 5 doses
  Pentamidine concentration, Kidney: 62 µg/g
  Pentamidine concentration, Liver: 112 µg/g
  Pentamidine concentration, Lung: 42 µg/g
  Pentamidine concentration, Spleen: 28 µg/g
[11]; 15 doses
  Pentamidine concentration, Adrenal: 92 µg/g
  Pentamidine concentration, Kidney: 123 µg/g
  Pentamidine concentration, Liver: 300 µg/g
  Pentamidine concentration, Lung: 56 µg/g
  Pentamidine concentration, Spleen: 368 µg/g
